Data on three sequences can be found in patent publication US20080207521A1, “PEPTIDE LIGAND TO IMPAIR CANCER CELL MIGRATION” (priority 2005, published 2008).

What all share (assay type): cell-based, human
The test system of one test is DDR1. Nature of the test: Collagen-induced DDR1 phosphorylation in Wnt-5a antisense HB2 cells (immunoprecipitation/Western blot). The settings on record: crude peptide (approximately 65% pure) 100 μM; 90 min on collagen I. The method, then:
The phosphorylation status of DDR1 was analyzed as previously described (12), with the following modifications. After serum-depletion for 16 h, the cells were detached with Versene and then allowed to adhere to collagen I for 60 (MDA-MB-468) or 90 min (HB2) at 37° C. The experiments were terminated by lysing both adherent and non-adherent cells with a lysis buffer (50 mM Tris pH 7.4, 1% Triton-X, 5 mM EDTA, 5 mM EGTA, 50 mM NaCl, 10 μg/ml aprotinin, 2.5 mM benzamidine, 1 mM pefabloc, 1 μg/ml leupeptin and 1 mM Na3VO4). For immunoblotting an anti-DDR1 rabbit polyclonal Ab, sc-532 (Santa Cruz Biotech, Santa Cruz, Calif.) was used at a dilution of 1:10,000. The Ab recognizes DDR1b/c, which is essential because collagen only induces phosphorylation of the b or c isoforms of DDR1 in mammary epithelial cells (10).
Effects of crude peptides on collagen-induced DDR1 phosphorylation in Wnt-5a antisense HB2 cells. Single cells were allowed to adhere to collagen I-coated plates in the presence of the indicated crude peptide (100 μM). (A) Experiments performed in the presence of peptides 167-173. (B) Experiments performed in the presence of peptides 175-180. After 90 min the cells were lysed and DDR1 immunoprecipitated. Subsequently, the immunoprecipitates were subjected to Western blot analysis with an anti-phosphotyrosine Ab and then, after stripping, with an anti-DDR1 Ab to ascertain equal loading. The blots shown are representative of 3 separate experiments The diagrams show densitometric analysis of DDR1 phosphorylation, expressed as per cent of control.

Test [1] relates to Wnt-5a antisense HB2 cells. Nature of the test: Migration of Wnt-5a antisense HB2 cells in modified Boyden chamber. To be noted: 95% pure peptide 100 μM; 18 h. The method, then:
(§1) Cell migration analyses were performed in a modified Boyden chamber with a polycarbonate membrane (10 μm thick with a porous diameter of 8.0 μm) separating the two chambers (Transwell®; Costar, Cambridge, Mass.). As indicated in some experiments the membranes were coated with collagen by adding collagen-I (10 μg/ml) diluted in 0.25% acetic acid to the upper chamber for 1 h at 37° C., after which it was washed three times with PBS. Each experiment was initiated by detaching the cells by Versene treatment for 10-20 min at 37° C., washed, and re-suspended as a single cell suspension in serum-free DMEM medium supplemented with 0.5% BSA. Together with the indicated agonist a 0.2 ml cell suspension (containing 25,000 MDA-MB-468 or 50,000 HB2 cells) was then added to the upper chamber of the transwell. The lower chamber was filled with 0.6 ml serum-free but BSA-containing DMEM medium supplemented with 1 ng/ml of the chemoattractant IGF-I. As a control, IGF-I was excluded in some wells in each separate experiment. The cells were allowed to migrate in the Boyden chamber for 18 h at 37° C. in a humidified atmosphere of 95% air and 5% CO2. The experiments were terminated by removing the non-migratory cells with a cotton-tipped applicator from the upper surface of the membranes. The remaining cells on the lower surface that had migrated through the membrane were stained for 20 min with 0.5% crystal violet diluted in 20% methanol/80% water. After washing the membranes the number of stained cells per membrane and well was counted in an inverted microscope. The value from each separate experiment represents the median value of three individual wells.
Effects of the selected and pure peptides on the ability of Wnt-5a antisense HB2 cells to adhere and migrate. (A-E) The ability of the cells to adhere to collagen type I-coated wells was analyzed as previously described for FIG. 2 in the absence or presence of different concentrations of the indicated peptide. (F) Effect of the indicated peptides on migration of Wnt-5a antisense HB2 in a transwell migration assay. The cells were allowed to migrate for 18 h in the absence or presence of 100 μM peptide or 0.4 μg/ml of recombinant Wnt5a. The data are given as means±SEM of 6-7 separate experiments, each performed in triplicate. * p<0.05 and ** p<0.01.

In another test the test system is MDA-MB-468 cells. Nature of the test: Migration of MDA-MB-468 cells in modified Boyden chamber. The settings on record: 18 h; for migration: pure peptide 100 μM. The method, then:
The HB2 mammary epithelial cell line, a subclone of the MTSV-1.7 cell line, originating from the laboratory of Dr. J. Taylor-Papadimitriou (11) was used. The HB2 cells were cultured in DMEM supplemented with 10% FBS, 5 U/mi penicillin, 0.5 U/ml streptomycin, 2 mM glutamine, 10 μg/ml bovine insulin and 5 μg/ml hydrocortisone. The human mammary carcinoma cell lines MCF-7 and MDA-MB-468 were cultured in DMEM supplemented with 10% FBS, 5 U/ml penicillin, 0.5 U/ml streptomycin and 2 mM glutamine. The pH-experiments were done in MEM supplemented with 10 mM Tris, 0.5% BSA, 5 U/ml penicillin, 0.5 U/ml streptomycin and 2 mM glutamine. The pH 7.4-medium was further supplemented with 4 mM sodium bicarbonate whereas the pH 6.7-medium was not. All cells were incubated at 37° C. in 95% air and 5% CO2.
as §1
Peptide-induced effects on MDA-MB-468 tumour cell migration and their content of F-actin. (A) The cells were allowed to migrate for 18 h in the absence or presence of the indicated peptides (100 μM) The data in panel A are expressed as means±SEM of 8 separate experiments, each performed in triplicate. * p<0.05. (B) The cells were allowed to adhere to collagen I-coated cover glasses for 18h in the absence or presence of peptide 175 (100 μM). The cells were then stained with Alexa488-Phalloidin as described in the methods section. The illustrated micrographs are representative of 5 separate experiments.
Effects of peptide 175 modifications on its ability to induce MDA-MB-468 tumour cell adhesion and migration. (A) The cells were allowed to adhere for 60 min to collagen-I coated wells in the absence or presence of peptide 175, three stepwise N-terminal deletion variants of peptide 175 or a formylated version of the tested hexapeptide derived from peptide 175. The amounts of adhesive cells were analyzed as described in the methods and the results are given as means±SEM of 6 separate experiments. (B and C) The cells were allowed to migrate for 18 h in the absence or presence of 1 or 10 μM of peptide 175 (B) or the formylated hexapeptide (C). The data are given as means±SEM of 6 separate experiments, each performed in triplicate. * p<0.05, p<0.01.
Effects of Frz-5 receptor blocking and reduced pH on the abilities of the formylated hexapeptide and Wnt-5a to inhibit tumour cell migration. […]

Regarding “ADFRKVGDALKEKYD [peptide 169, Wnt-5a aa 242-256]”, the DDR1 phosphorylation result in the test on DDR1 is listed as “significant DDR1 phosphorylation”. Also, the values for the migration entry (in test [1]; in the test with MDA-MB-468 cells) were “effectively decreased the migration” and “significantly decreased the migration”, respectively.
Take “NKTSEGMDGCEL (Human) [peptide 175, Wnt-5a aa 311-322]”: the DDR1 phosphorylation result in the test on DDR1 is “significant DDR1 phosphorylation”. Further, the migration entry in test [1] is reported as “effectively decreased the migration”; in the test with MDA-MB-468 cells, “significantly decreased the migration”. Further, in the test with MDA-MB-468 cells (10 μM), the “motility (migration)” value is reported as “significantly impaired the motility”.
Take “SQLAGLSQGQKKL [peptide 171, Wnt-5a aa 55-67; negative control]”: the DDR1 phosphorylation entry with DDR1 was “no DDR1 phosphorylation”. The migration result in test [1] was “no effect on migration”; in the test with MDA-MB-468 cells, “no statistically significant effect”.
